According to patent US11027021B2, “Combinations of PBD-based antibody drug conjugates with Bcl-2 inhibitors” (Seagen Inc., priority 2016, dated 2021):

Assays:
[1] = tested on: MOLM-13 cells; experiment: MOLM-13 subcutaneous xenograft survival experiment; type: in vivo; conditions: ABT-199 alone 100 mg/kg daily by oral gavage for 14 days; MOLM-13 xenograft, SCID mice
Description: (§1) Tumor growth was monitored throughout the course of the study with bilateral vernier caliper measurements, and mean tumor volumes were calculated using the equation (0.5×[length×width^2]). […] Mice with advanced tumor burden were sacrificed upon reaching tumor volumes of greater than 400 mm^3 or showing symptoms of hind limb paralysis, cranial swelling, and/or moribundity.

[2] = tested on: RL cells; experiment: RL subcutaneous xenograft survival experiment; type: in vivo; conditions: ABT-199 alone 100 mg/kg daily by oral gavage for 14 days, SCID mice
Description: as §1

CC1(C)CCC(CN2CCN(c3ccc(C(=O)NS(=O)(=O)c4ccc(NCC5CCOCC5)c([N+](=O)[O-])c4)c(Oc4cnc5[nH]ccc5c4)c3)CC2)=C(c2ccc(Cl)cc2)C1 [ABT-199, 2-(1H-pyrrolo[2,3-b]pyridin-5-yloxy)-4-(4-((2-(4-chlorophenyl)-4,4-dimethylcyclohex-1-enyl)methyl)piperazin-1-yl)-N-(3-nitro-4-(((tetrahydro-2H-pyran-4-yl)methyl)amino)phenylsulfonyl)benzamide]
rate of survival by day 20 [1]: 0% | rate of survival by day 30 [2]: 0%
